Data: patent US11613556B2, “Oxysterols and methods of use thereof” (Sage Therapeutics, Inc., priority 2016, dated 2023)
Like-named read-outs stand apart in the source and are kept apart here.

Tests used:
[1] = biological target: GluN1/GluN2A glutamate receptors (human GRIN1/GRIN2A) expressed in HEK293 cells (Homo sapiens (Human), UniProt Q05586+Q12879); assay: Whole-cell patch clamp of mammalian cells (Ionworks Barracuda), positive allosteric modulation, GluN1/GluN2A; type: cell-based; conditions: for Emax: read-out: GluN2A PCA EMax (%)
Chain of GluN1/GluN2A glutamate receptors (human GRIN1/GRIN2A) expressed in HEK293 cells (Q12879 whole entry, looked up, other chains not shown): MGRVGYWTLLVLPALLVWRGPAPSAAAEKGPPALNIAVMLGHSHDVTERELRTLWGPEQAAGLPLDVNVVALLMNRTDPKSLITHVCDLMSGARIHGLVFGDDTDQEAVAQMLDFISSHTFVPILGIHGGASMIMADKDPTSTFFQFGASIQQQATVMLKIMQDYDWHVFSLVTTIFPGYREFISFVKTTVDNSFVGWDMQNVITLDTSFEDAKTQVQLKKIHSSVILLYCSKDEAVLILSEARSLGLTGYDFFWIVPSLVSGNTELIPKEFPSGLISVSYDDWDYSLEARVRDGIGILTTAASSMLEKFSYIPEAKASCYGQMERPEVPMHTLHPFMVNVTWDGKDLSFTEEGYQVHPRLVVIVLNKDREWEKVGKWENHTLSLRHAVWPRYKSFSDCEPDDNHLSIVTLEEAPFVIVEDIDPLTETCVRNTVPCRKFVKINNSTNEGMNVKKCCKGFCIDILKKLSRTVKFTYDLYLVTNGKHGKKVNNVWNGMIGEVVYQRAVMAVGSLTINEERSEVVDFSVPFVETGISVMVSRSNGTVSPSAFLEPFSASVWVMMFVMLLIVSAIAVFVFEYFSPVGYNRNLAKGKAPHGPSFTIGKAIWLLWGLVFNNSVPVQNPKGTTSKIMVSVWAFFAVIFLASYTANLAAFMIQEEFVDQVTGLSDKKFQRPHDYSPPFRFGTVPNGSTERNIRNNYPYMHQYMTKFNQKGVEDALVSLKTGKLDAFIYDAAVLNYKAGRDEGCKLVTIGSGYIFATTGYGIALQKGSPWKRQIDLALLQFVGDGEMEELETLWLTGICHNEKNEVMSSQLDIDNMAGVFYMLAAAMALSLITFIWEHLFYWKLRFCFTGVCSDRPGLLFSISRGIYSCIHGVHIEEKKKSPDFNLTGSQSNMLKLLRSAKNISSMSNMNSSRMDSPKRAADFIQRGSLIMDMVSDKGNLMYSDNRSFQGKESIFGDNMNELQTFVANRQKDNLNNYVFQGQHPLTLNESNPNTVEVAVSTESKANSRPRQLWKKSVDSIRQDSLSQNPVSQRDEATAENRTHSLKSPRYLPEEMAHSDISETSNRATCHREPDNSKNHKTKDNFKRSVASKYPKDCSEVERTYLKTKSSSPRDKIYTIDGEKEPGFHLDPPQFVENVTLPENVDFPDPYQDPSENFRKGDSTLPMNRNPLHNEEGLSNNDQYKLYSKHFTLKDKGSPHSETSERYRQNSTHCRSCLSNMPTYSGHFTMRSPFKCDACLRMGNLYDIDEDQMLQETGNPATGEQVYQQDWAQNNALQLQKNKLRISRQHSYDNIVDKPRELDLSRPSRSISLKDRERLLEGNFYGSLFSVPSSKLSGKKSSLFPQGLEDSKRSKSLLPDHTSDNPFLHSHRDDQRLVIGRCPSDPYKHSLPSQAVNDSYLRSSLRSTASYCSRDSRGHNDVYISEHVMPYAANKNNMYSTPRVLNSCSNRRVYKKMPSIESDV
Protocol: (§1) NMDA potentiation in mammalian cells which expressed NMDA receptors was assessed using the automatic patch-clamp system can be used determine the NAM activity of compounds as described below. An whole cell patch-clamp system can be used determine the PAM activity of compounds as described below.
(§2) The measurements were performed using Ion Works Barracuda platform following this procedure:
(§3) Electrophysiological Procedures: • a) Intracellular solution (mM): 50 mM CsCl, 90 mM CsF, 2 mM MgCl2, 5 mM EGTA, 10 mM HEPES. Adjust to pH 7.2 with CsOH. • b) Extracellular solution, HB-PS (composition in mM): NaCl, 137; KCl, 1.0; CaCl2, 5; HEPES, 10; Glucose, 10; pH adjusted to 7.4 with NaOH (refrigerated until use). • c) Holding potential: −70 mV, potential during agonist/PAM application: −40 mV.
(§4) Recording Procedure: • a) Extracellular buffer will be loaded into the PPC plate wells (11 μL per well). Cell suspension will be pipetted into the wells (9 μL per well) of the PPC planar electrode. • b) Whole-cell recording configuration will be established via patch perforation with membrane currents recorded by on-board patch clamp amplifiers. • c) Two recordings (scans) will be performed. First, during pre-application of test article alone (duration of pre-application—5 min) and second, during test articles and agonist (EC20 L-glutamate and 30 μM glycine) co-application to detect positive modulatory effects of the test article.
(§5) Test Article Administration: The first pre-application will consist of the addition of 20 μL of 2× concentrated test article solution and, second, of 20 μL of 1× concentrated test article and agonist at 10 μL/s (2 second total application time).
(§6) Potentiating Effect of Positive Allosteric Modulators (PAM) on the Channel
(§7) The maximal amplitude of the evoked currents are measured and defined as Peak Current Amplitude (PCA).

[2] = biological target: GluN2B glutamate receptors expressed in mammalian cells (Homo sapiens (Human), UniProt Q05586+Q13224); assay: Whole-cell patch clamp of mammalian cells (Ionworks Barracuda), positive allosteric modulation, GluN2B; type: cell-based; conditions: for Emax: read-out: GluN2B PCA EMax (%)
Chain of GluN2B glutamate receptors expressed in mammalian cells (Q13224 27-1484, other chains not shown): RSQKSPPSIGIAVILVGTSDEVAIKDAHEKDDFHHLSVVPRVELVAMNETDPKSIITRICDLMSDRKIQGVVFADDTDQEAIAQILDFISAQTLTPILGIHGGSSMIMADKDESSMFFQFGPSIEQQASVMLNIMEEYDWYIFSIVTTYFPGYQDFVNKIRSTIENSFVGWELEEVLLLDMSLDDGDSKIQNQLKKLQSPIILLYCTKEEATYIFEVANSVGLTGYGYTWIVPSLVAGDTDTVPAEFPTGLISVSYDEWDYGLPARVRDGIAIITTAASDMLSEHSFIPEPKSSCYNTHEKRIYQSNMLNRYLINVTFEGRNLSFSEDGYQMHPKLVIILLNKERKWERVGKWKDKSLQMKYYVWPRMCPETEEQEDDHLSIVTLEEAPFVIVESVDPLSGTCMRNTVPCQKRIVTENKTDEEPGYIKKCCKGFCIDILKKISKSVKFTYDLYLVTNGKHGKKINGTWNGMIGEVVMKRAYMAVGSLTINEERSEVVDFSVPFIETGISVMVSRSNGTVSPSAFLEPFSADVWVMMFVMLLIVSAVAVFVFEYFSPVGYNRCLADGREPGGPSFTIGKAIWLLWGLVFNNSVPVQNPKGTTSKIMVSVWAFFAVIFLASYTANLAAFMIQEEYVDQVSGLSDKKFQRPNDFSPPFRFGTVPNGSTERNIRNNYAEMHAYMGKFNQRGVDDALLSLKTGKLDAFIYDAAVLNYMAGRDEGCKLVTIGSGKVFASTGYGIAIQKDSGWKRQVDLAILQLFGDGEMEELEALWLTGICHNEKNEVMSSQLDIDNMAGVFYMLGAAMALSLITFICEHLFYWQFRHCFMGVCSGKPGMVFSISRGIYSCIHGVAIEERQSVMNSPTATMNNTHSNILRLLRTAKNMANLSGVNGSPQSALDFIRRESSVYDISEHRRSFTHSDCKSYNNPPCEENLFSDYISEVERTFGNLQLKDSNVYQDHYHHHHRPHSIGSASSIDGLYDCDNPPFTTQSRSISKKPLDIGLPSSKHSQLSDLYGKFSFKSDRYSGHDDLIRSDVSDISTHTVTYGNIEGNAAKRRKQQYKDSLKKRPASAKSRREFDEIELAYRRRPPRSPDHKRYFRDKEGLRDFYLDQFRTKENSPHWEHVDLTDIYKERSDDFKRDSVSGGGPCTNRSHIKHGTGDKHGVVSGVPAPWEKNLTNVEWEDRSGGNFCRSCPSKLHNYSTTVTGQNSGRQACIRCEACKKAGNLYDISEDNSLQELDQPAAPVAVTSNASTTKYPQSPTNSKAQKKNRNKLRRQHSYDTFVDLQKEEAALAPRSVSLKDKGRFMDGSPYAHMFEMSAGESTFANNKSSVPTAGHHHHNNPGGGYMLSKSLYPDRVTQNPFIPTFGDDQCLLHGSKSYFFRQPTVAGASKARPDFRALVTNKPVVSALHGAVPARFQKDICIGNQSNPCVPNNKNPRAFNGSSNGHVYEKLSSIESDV
Protocol: as §1, §2, §3, §4, §5, §6, §7

[3] = peak current amplitude, co-application with EC20 L-glutamate and 30 μM glycine, HEK293, read-out: GluN2A PCA EC50
[4] = peak current amplitude, co-application with EC20 L-glutamate and 30 μM glycine, HEK293
[5] = peak current amplitude, co-application with EC20 L-glutamate and 30 μM glycine, read-out: GluN2B PCA EC50
[6] = peak current amplitude, co-application with EC20 L-glutamate and 30 μM glycine

Compound	EC50 [1, 3] [nM]	Emax [1, 4] [%]	EC50 [2] [nM]	Emax [2] [%]	EC50 [1] [nM]	EC50 [2, 5] [nM]	Emax [2, 6] [%]
CC[C@]1(O)CC[C@@]2(C)[C@@H](CC[C@@H]3[C@@H]2CC[C@]2(C)[C@@H]([C@H](C)[C@H](O)CCC(C)C)CC[C@@H]32)C1 [Compound 24, (3S,5S,8R,9S,10S,13S,14S,17R)-3-ethyl-17-((2S,3R)-3-hydroxy-6-methylheptan-2-yl)-10,13-dimethylhexadecahydro-1H-cyclopenta[a]phenanthren-3-ol]	> 1000	< 100	> 1000	< 100			
C[C@@H]([C@H]1CC[C@H]2[C@@H]3CC[C@H]4C[C@](O)(C(F)(F)F)CC[C@]4(C)[C@H]3CC[C@]12C)[C@@H](O)C[C@H](O)c1ccccc1 [Compound 25, (1S,3S,4S)-4-((3S,5S,8R,9S,10S,13S,14S,17R)-3-hydroxy-10,13-dimethyl-3-(trifluoromethyl)hexadecahydro-1H-cyclopenta[a]phenanthren-17-yl)-1-phenylpentane-1,3-diol]	> 1000	< 100	> 1000	< 100			
CC[C@]1(O)CC[C@H]2C(=CC[C@@H]3[C@@H]2CC[C@]2(C)[C@@H]([C@H](C)[C@H](O)CCC(C)C)CC[C@@H]32)C1 [Compound 3, (3S,8R,9S,10R,13S,14S,17R)-3-ethyl-17-((2S,3R)-3-hydroxy-6-methylheptan-2-yl)-13-methyl-2,3,4,7,8,9,10,11,12,13,14,15,16,17-tetradecahydro-1H-cyclopenta[a]phenanthren-3-ol]		< 100			> 1000	> 1000	< 100
CC(C)CC[C@@H](O)[C@@H](C)[C@H]1CC[C@H]2[C@@H]3CC=C4C[C@@](C)(O)CC[C@]4(C)[C@H]3CC[C@]12C [Compound 30, (3S,8S,9S,10R,13S,14S,17R)-17-((2S,3R)-3-hydroxy-6-methylheptan-2-yl)-3,10,13-trimethyl-2,3,4,7,8,9,10,11,12,13,14,15,16,17-tetradecahydro-1H-cyclopenta[a]phenanthren-3-ol]		100 to 500			> 1000	> 1000	100 to 500
CC[C@]1(O)CC[C@@]2(C)C(=CC[C@H]3[C@@H]4CC[C@H]([C@H](C)[C@@H](O)CCC(C)C)[C@@]4(C)CC[C@@H]32)C1 [Compound 77, (3S,8S,9S,10R,13S,14S,17R)-3-ethyl-17-((2S,3S)-3-hydroxy-6-methylheptan-2-yl)-10,13-dimethyl-2,3,4,7,8,9,10,11,12,13,14,15,16,17-tetradecahydro-1H-cyclopenta[a]phenanthren-3-ol]		< 100			> 1000	> 1000	< 100
C[C@@H]([C@H]1CC[C@H]2[C@@H]3CC[C@H]4C[C@](O)(C(F)(F)F)CC[C@]4(C)[C@H]3CC[C@]12C)[C@@H](O)C[C@@H](O)c1ccccc1 [Compound 79, (1R,3S,4S)-4-((3S,5S,8R,9S,10S,13S,14S,17R)-3-hydroxy-10,13-dimethyl-3-(trifluoromethyl)hexadecahydro-1H-cyclopenta[a]phenanthren-17-yl)-1-phenylpentane-1,3-diol]	> 1000	< 100	> 1000	< 100			
CC[C@]1(O)CC[C@@]2(C)C(=CC[C@H]3[C@@H]4CC[C@H]([C@H](C)[C@@H](O)CC5CCC(C)(C)CC5)[C@@]4(C)CC[C@@H]32)C1 [Compound 49, (3S,8S,9S,10R,13S,14S,17R)-17-((2S,3S)-4-(4,4-dimethylcyclohexyl)-3-hydroxybutan-2-yl)-3-ethyl-10,13-dimethyl-2,3,4,7,8,9,10,11,12,13,14,15,16,17-tetradecahydro-1H-cyclopenta[a]phenanthren-3-ol]		< 100			> 1000	> 1000	< 100
C[C@H]([C@H](O)C[C@H](O)c1ccccc1)[C@H]1CC[C@H]2[C@@H]3CC[C@H]4C[C@](O)(C(F)(F)F)CC[C@]4(C)[C@H]3CC[C@]12C [Compound 13, (1S,3R,4S)-4-((3S,5S,8R,9S,10S,13S,14S,17R)-3-hydroxy-10,13-dimethyl-3-(trifluoromethyl)hexadecahydro-1H-cyclopenta[a]phenanthren-17-yl)-1-phenylpentane-1,3-diol]	1 to 100	< 100	1 to 100	100 to 500			
CC[C@]1(O)CC[C@H]2C(=CC[C@@H]3[C@@H]2CC[C@]2(C)[C@@H]([C@H](C)[C@@H](O)CCC(C)C)CC[C@@H]32)C1 [Compound 44, (3S,8R,9S,10R,13S,14S,17R)-3-ethyl-17-((2S,3S)-3-hydroxy-6-methylheptan-2-yl)-13-methyl-2,3,4,7,8,9,10,11,12,13,14,15,16,17-tetradecahydro-1H-cyclopenta[a]phenanthren-3-ol]		< 100			> 1000	> 1000	< 100
C[C@H]([C@H](O)C[C@@H](O)c1ccccc1)[C@H]1CC[C@H]2[C@@H]3CC[C@H]4C[C@](O)(C(F)(F)F)CC[C@]4(C)[C@H]3CC[C@]12C [Compound 31, (1R,3R,4S)-4-((3S,5S,8R,9S,10S,13S,14S,17R)-3-hydroxy-10,13-dimethyl-3-(trifluoromethyl)hexadecahydro-1H-cyclopenta[a]phenanthren-17-yl)-1-phenylpentane-1,3-diol]	1 to 100	100 to 500	100 to 1000	100 to 500			
CC[C@]1(O)CC[C@@]2(C)C(=CC[C@H]3[C@@H]4CC[C@H]([C@H](C)[C@H](O)CCC(C)C)[C@@]4(C)CC[C@@H]32)C1 [Compound 52, (3S,8S,9S,10R,13S,14S,17R)-3-ethyl-17-((2S,3R)-3-hydroxy-6-methylheptan-2-yl)-10,13-dimethyl-2,3,4,7,8,9,10,11,12,13,14,15,16,17-tetradecahydro-1H-cyclopenta[a]phenanthren-3-ol]		< 100			> 1000	> 1000	< 100
CC(C)CC[C@H](O)[C@@H](C)[C@H]1CC[C@H]2[C@@H]3CC=C4C[C@@](C)(O)CC[C@]4(C)[C@H]3CC[C@]12C [Compound 75, (3S,8S,9S,10R,13S,14S,17R)-17-((2S,3S)-3-hydroxy-6-methylheptan-2-yl)-3,10,13-trimethyl-2,3,4,7,8,9,10,11,12,13,14,15,16,17-tetradecahydro-1H-cyclopenta[a]phenanthren-3-ol]		< 100			> 1000	> 1000	< 100
CC[C@]1(O)CC[C@H]2[C@@H](CC[C@@H]3[C@@H]2CC[C@]2(C)[C@@H]([C@H](C)[C@@H](O)CCC(C)C)CC[C@@H]32)C1 [Compound 28, (3S,5S,8R,9R,10S,13S,14S,17R)-3-ethyl-17-((2S,3S)-3-hydroxy-6-methylheptan-2-yl)-13-methylhexadecahydro-1H-cyclopenta[a]phenanthren-3-ol]		< 100			> 1000	> 1000	100 to 500
CC[C@]1(O)CC[C@@]2(C)[C@@H](CC[C@@H]3[C@@H]2CC[C@]2(C)[C@@H]([C@H](C)[C@@H](O)CCC(C)C)CC[C@@H]32)C1 [Compound 29, (3S,5S,8R,9S,10S,13S,14S,17R)-3-ethyl-17-((2S,3S)-3-hydroxy-6-methylheptan-2-yl)-10,13-dimethylhexadecahydro-1H-cyclopenta[a]phenanthren-3-ol]	> 1000	< 100	> 1000	< 100			
CC(C)CC[C@@H](O)[C@@H](C)[C@H]1CC[C@H]2[C@@H]3CC[C@H]4C[C@@](C)(O)CC[C@]4(C)[C@H]3CC[C@]12C [Compound 47, (3S,5S,8R,9S,10S,13S,14S,17R)-17-((2S,3R)-3-hydroxy-6-methylheptan-2-yl)-3,10,13-trimethylhexadecahydro-1H-cyclopenta[a]phenanthren-3-ol]		< 100			> 1000	> 1000	< 100
